Values after ≈ are worked out from the molar mass of the structure shown. Each block holds one molecule with its values, some of them ahead of it.
How the values were obtained:
Rattus norvegicus [1] = assay: In vivo inhibition of eosinophils in rat bronchoalveolar lavage fluid at 4.76 ug/kg administered as dry powder inhalation relative to control; assay type: functional; conditions: inhaled or nasal
Rattus norvegicus [2] = assay: In vivo inhibition of eosinophils in rat bronchoalveolar lavage fluid at 0.6 ug/kg administered as dry powder inhalation relative to control; assay type: functional; conditions: inhaled or nasal
[3] = biological target: Janus Kinase (JAK) (Homo sapiens) (UniProt P52333+P23458+O60674+P29597)
Description: Binding affinity to JAK in human PBMC assessed as half life measured after compound washout was out

Mus musculus = assay: In vivo inhibition of IL13 induced STAT6 phosphorylation in mouse lung administered as i.t dose relative to ocntrol; assay type: functional
[4] = Dissociation constant, pKa of compound; assay type: physicochemical
[5] = Kinetic solubility of the compound at pH 7.4; assay type: physicochemical; conditions: buffer, read-out: Kinetic_solubility
[6] = Apparent permeability from apical to basolateral side in MDCK cells; assay type: ADME, cell-based, Canis lupus familiaris; conditions: dog

Structure (SMILES): COC[C@H](C(=O)Nc1cccc2c(-c3nc(Nc4cccc(S(C)(=O)=O)c4F)ncc3F)c[nH]c12)N1CCN(C)CC1 [LONDAMOCITINIB]
inhibition in vivo at 0.00476 mg/kg (Rattus norvegicus [1]): 61%
inhibition in vivo at 0.0006 mg/kg (Rattus norvegicus [2]): 68%

T1/2 [3]: 9 h
Structure (SMILES): CCc1cc(O)c(F)cc1-c1ccc2c(-c3nc4c([nH]3)CCN(C(=O)c3cnc(N5CCCCC5)cn3)C4)n[nH]c2c1

pKa [4]: 10.5
Structure (SMILES): CCc1cc(O)c(F)cc1-c1ccc2c(-c3nc4c([nH]3)CCN(C3CCN(C)CC3)C4)n[nH]c2c1
inhibition (INH) (Mus musculus): 60%

solubility kinetic [5]: 34 µM (≈ 20.8 µg/mL)
Papp A→B [6]: 2.7 ×10⁻⁶ cm/s
Structure (SMILES): CN(CCC#N)C1CCN(C(=O)Cn2cc(NC(=O)c3cnn4cccnc34)c(-c3cc(Cl)ccc3OC(F)F)n2)CC1
